Converted amounts (≈) assume the structure as drawn.

Assay [1] deals with ADP-induced aggregation of human blood platelets in platelet-rich-plasma. Briefly: In vitro inhibition of ADP-induced human platelet aggregation (aggregometer method, PRP). It counts as cell-based. The settings on record: for IC50 / inhibition at 32 µg/mL: Homo sapiens, Platelet; for IC50: read-out: IC50 (human PRP vs ADP), human PRP, incubated at about 37° C. for about 3 minutes prior to ADP; for inhibition at 32 µg/mL: read-out: percentage in brackets beside the IC50 entry 32 (inhibition of ADP-induced aggregation); for IC50 (human PRP vs ADP): incubated at about 37° C. for about 3 minutes prior to ADP. Here is the method: The aggregometer method of Born, G. V. R., J. Physiol., (London), 162, 67-68, (1962) as modified by Mustard, J. F., et al., J. Lab. Clin. Med., 64, 548-599, (1964) was used to assess the in vitro activity of the various compounds as to the inhibition of adenosine diphosphate (ADP) and collagen-induced platelet aggregation. The human volunteer donor's arm is cleansed with 70% ethyl alcohol. A sterile 20 ml syringe and needle are used to withdraw 20 ml of blood. The blood is immediately added to a test tube containing 3.8% sodium citrate to prevent clotting (1 part citrate to 9 parts blood).
Platelet rich plasma (PRP) was separated by centrifugation for 10 minutes at 1000 rpm (140×g) from citrated (3.8%) human blood. All glassware used for preparation of PRP is silicon treated. ADP in final concentration of 0.5 mcg/mL or 0.05 mL of a collagen suspension prepared according to the method described by Evans, G., et al., J. Exp. Med., 128, 877-894, (1968) was used to induce aggregation. The various compounds tested were dissolved in dimethylsulfoxide (DMSO) so that 5 mcl added to the platelet rich plasma would yield the desired test concentration. Vehicle control trials were done and compared with aggregation induced in platelet rich plasma containing various concentrations of the test compounds. Dose response curves were obtained and Inhibitor Concentration (IC50) values calculated.
The target compounds were evaluated as inhibitors of ADP-induced aggregation of human blood platelet in platelet-rich-plasma (PRP) in vitro. The test compounds were incubated at about 37° C. in PRP for about 3 minutes prior to the addition of sufficient ADP to provide final ADP concentration of […].

In assay [2] the test system is platelet aggregation (human PRP vs ADP). The settings on record: U.S. Pat. No. 4,460,598 / Drugs of the Future 11, 26 (1986), cited from earlier work.

In the case of `COC(=O)COc1cccc([C@@H]2OC=N[C@H]2c2nc(-c3ccccc3)c(-c3ccccc3)o2)c1` (relative stereo) [Compound 31, Methyl[3-[4-(4,5-diphenyl-2-oxazolyl)-4,5-dihydro-5-oxazolyl]phenoxy]acetate], the IC50 in assay [1] came out at 0.08 mg/L (≈ 0.176 µM). With `COC(=O)COc1cccc([C@@H]2OC(C)=N[C@H]2c2nc(-c3ccccc3)c(-c3ccccc3)o2)c1` (relative stereo) [Compound 39, Methyl[3-[4-(4,5-diphenyl-2-oxazolyl)-4,5-dihydro-2-methyl-5-oxazolyl]phenoxy]acetate], the half-maximal inhibitory concentration (IC50) in assay [1] came to 0.65 mg/L (≈ 1.39 µM). In the case of `COC(=O)COc1cccc([C@@H]2OC(c3ccccc3)=N[C@H]2c2nc(-c3ccccc3)c(-c3ccccc3)o2)c1` (relative stereo) [Compound 40, Methyl[3-[4-(4,5-diphenyl-2-oxazolyl)-4,5-dihydro-2-phenyl-5-oxazolyl]phenoxy]acetate], in assay [1], the IC50 is 10 mg/L (≈ 18.8 µM).

`COC(=O)COc1cccc([C@H]2OC(C)=N[C@H]2c2nc(-c3ccccc3)c(-c3ccccc3)o2)c1` (relative stereo) [Compound 41, Methyl[3-[4-(4,5-diphenyl-2-oxazolyl)-4,5-dihydro-2-methyl-5-oxazolyl]phenoxy]acetate]: the IC50 in assay [1] was 27 mg/L (≈ 57.6 µM). `COC(=O)COc1cccc([C@H]2OC(c3ccccc3)=N[C@H]2c2nc(-c3ccccc3)c(-c3ccccc3)o2)c1` (relative stereo) [Compound 42, Methyl[3-[4-(4,5-diphenyl-2-oxazolyl)-4,5-dihydro-2-phenyl-5-oxazolyl]phenoxy]acetate]: in assay [1], the IC50 turned out to be 32 mg/L (≈ 60.3 µM) and the inhibition at 32 µg/mL was determined as 15%. As for `COC(=O)COc1cccc(-c2ncoc2-c2nc(-c3ccccc3)c(-c3ccccc3)o2)c1` [Compound 4], the IC50 in assay [1] was found to be 0.174 mg/L (≈ 0.385 µM). Take `O=C(O)COc1cccc(-c2ncoc2-c2nc(-c3ccccc3)c(-c3ccccc3)o2)c1` [Compound 5]: in assay [1], the IC50 came to 0.07 mg/L (≈ 0.16 µM). `COC(=O)COc1cccc(-c2ccccc2-c2nc(-c3ccccc3)c(-c3ccccc3)o2)c1` [Compound 6, Methyl[2'-(4,5-diphenyl-2-oxazolyl)-[1,1'-biphenyl]-3-yloxy]acetate]: in assay [1], the IC50 was 32 mg/L (≈ 69.3 µM) and the inhibition at 32 µg/mL turned out to be 34%. For `O=C(O)COc1cccc(-c2ccccc2-c2nc(-c3ccccc3)c(-c3ccccc3)o2)c1` [Compound 7, [2'-(4,5-Diphenyl-2-oxazolyl)-[1,1'-biphenyl]-3-yloxy]acetic acid], the IC50 in assay [1] was determined as 5 mg/L (≈ 11.2 µM). With `COC(=O)COc1cccc(-c2nn(C)cc2-c2nc(-c3ccccc3)c(-c3ccccc3)o2)c1` [Compound 11, Methyl[3-[4-(4,5-diphenyl-2-oxazoly)-1-methyl-3-pyrazolyl]phenoxy]acetate], the IC50 in assay [1] came to 1.12 mg/L (≈ 2.41 µM). Same read-out and setting: to `Cn1cc(-c2nc(-c3ccccc3)c(-c3ccccc3)o2)c(-c2cccc(OCC(=O)O)c2)n1` [Compound 12] belongs 0.3 mg/L (≈ 0.664 µM); to `COC(=O)COc1cccc(-c2c(-c3nc(-c4ccccc4)c(-c4ccccc4)o3)cnn2C)c1` [Compound 13, Methyl[3-[4-(4,5-diphenyl-2-oxazolyl)-1-methyl-5-pyrazolyl]phenoxy]acetate], 0.75 mg/L (≈ 1.61 µM); to `Cn1ncc(-c2nc(-c3ccccc3)c(-c3ccccc3)o2)c1-c1cccc(OCC(=O)O)c1` [Compound 14], 0.5 mg/L (≈ 1.11 µM). As to `COC(=O)COc1cccc(-c2[nH]ncc2-c2nc(-c3ccccc3)c(-c3ccccc3)o2)c1` [Compound 15, Methyl[3-[4-(4,5-diphenyl-2-oxazolyl)-5-pyrazolyl]phenoxy]acetate], the IC50 in assay [1] came out at 0.07 mg/L (≈ 0.155 µM). With `O=C(O)COc1cccc(-c2[nH]ncc2-c2nc(-c3ccccc3)c(-c3ccccc3)o2)c1` [Compound 16, [3-[4-(4,5-Diphenyl-2-oxazolyl)-5-pyrazolyl]phenoxy]acetic acid], the IC50 in assay [1] worked out at 0.08 mg/L (≈ 0.183 µM). For `COC(=O)COc1cccc(-c2oc(C)nc2-c2nc(-c3ccccc3)c(-c3ccccc3)o2)c1` [Compound 23, Methyl[3-[4-(4,5-diphenyl-2-oxazolyl)-2-methyl-5-oxazolyl]phenoxy]acetate], the IC50 in assay [1] is 0.13 mg/L (≈ 0.279 µM). `Cc1nc(-c2nc(-c3ccccc3)c(-c3ccccc3)o2)c(-c2cccc(OCC(=O)O)c2)o1` [Compound 24]: the IC50 in assay [1] was determined as 0.02 mg/L (≈ 0.0442 µM). For the molecule `COC(=O)COc1cccc(-c2oc(-c3ccccc3)nc2-c2nc(-c3ccccc3)c(-c3ccccc3)o2)c1` [Compound 25, Methyl[3-[4-(4,5-diphenyl-2-oxazolyl) -2-phenyl-5-oxazolyl]phenoxy]acetate], in assay [1], the IC50 was found to be 32 mg/L (≈ 60.5 µM) and the inhibition at 32 µg/mL was 6%.

With `O=C(O)COc1cccc(-c2oc(-c3ccccc3)nc2-c2nc(-c3ccccc3)c(-c3ccccc3)o2)c1` [Compound 26, [3-[4-(4,5-Diphenyl-2-oxazolyl)-2-phenyl-5-oxazolyl]phenoxy]acetic acid], in assay [1], the IC50 was 32 mg/L (≈ 62.2 µM). Still for that read-out and setting: to `COC(=O)COc1cccc(C(O)C(NC=O)c2nc(-c3ccccc3)c(-c3ccccc3)o2)c1` (centres unmarked) [Compound 33, Methyl[3-[2-(4,5-diphenyl-2-oxazolyl)-2-(formylamino)-1-hydroxy-ethyl]phenoxy]acetate] belongs 10 mg/L (≈ 21.2 µM); to `O=CNC(c1nc(-c2ccccc2)c(-c2ccccc2)o1)C(O)c1cccc(OCC(=O)O)c1` (centres unmarked) [Compound 36], 6.5 mg/L (≈ 14.2 µM).

As to `NC(c1nc(-c2ccccc2)c(-c2ccccc2)o1)C(O)c1cccc(OCC(=O)O)c1` (centres unmarked) [Compound 37], the “IC50 (human PRP vs ADP)” value in assay [1] stood at 0.9 mg/L (≈ 2.09 µM). On to `COC(=O)COc1cccc(C(O)C(N)c2nc(-c3ccccc3)c(-c3ccccc3)o2)c1` (centres unmarked) [Compound 38, Methyl[3-[2-(4,5-diphenyl-2-oxazolyl)-2-amino-1-hydroxyethyl]phenoxy]acetate], for which, in assay [1], the IC50 was found to be 2.8 mg/L (≈ 6.3 µM).

As to `COC(=O)COc1cccc(C2OC(=O)NC2c2nc(-c3ccccc3)c(-c3ccccc3)o2)c1` (centres unmarked) [Compound 43, Methyl[3-[4-(4,5-diphenyl-2-oxazolyl)-2-oxo-5-oxazolidinyl]phenoxy]acetate], the IC50 in assay [1] worked out at 5 mg/L (≈ 10.6 µM). On to `O=C(O)COc1cccc(C2OC(=O)NC2c2nc(-c3ccccc3)c(-c3ccccc3)o2)c1` (centres unmarked) [Compound 44, [3-[4-(4,5-Diphenyl-2-oxazolyl)-2-oxo-5-oxazolidinyl]phenoxy]acetic acid], for which the “IC50 (human PRP vs ADP)” value in assay [1] came to 1 mg/L (≈ 2.19 µM). As to `O=C(O)COc1cccc(C2OC(=O)NC2c2nc(-c3ccccc3)c(-c3ccccc3)o2)c1` (centres unmarked) [Compound 45, [3-[4-(4,5-Diphenyl-2-oxazolyl)-2-oxo-5-oxazolidinyl]phenoxy]acetic acid], in assay [1], the inhibition at 32 µg/mL stood at 8% and the “IC50 (human PRP vs ADP)” value turned out to be 32 mg/L (≈ 70.1 µM). `O=C(O)CCCCCCCOc1nc(-c2ccccc2)c(-c2ccccc2)n1-c1ccccc1` [Octimibate]: in assay [2], the “inhibition of platelet aggregation, in words” value is listed as “broad spectrum inhibitor of platelet aggregation”. Further, the “IC50 (human PRP vs ADP)” value in assay [2] (human PRP vs ADP) is 1 mg/L (≈ 2.2 µM).

One may read the IC50 as the concentration that gives 50% inhibition. One may read the inhibition as the change of the read-out against control, counted positive when it falls.
